The values below come from ChEMBL document CHEMBL1154961, “Structure-activity relationships of bacterial outer-membrane permeabilizers based on polymyxin B heptapeptides” (2010).

The test system of one assay is Staphylococcus aureus. The assay is described as follows: Antibacterial activity against Staphylococcus aureus 209P after 20 hrs by liquid microdilution method. Format: functional.
In assay [1] the test system is Escherichia coli. The assay is described as follows: Antibacterial activity against Escherichia coli K-12 W3110 after 20 hrs by liquid microdilution method. The format is functional. To be noted: K-12 W3110, 20 h.
Assay [2] concerns Escherichia coli. The assay is described as follows: Induction of outer membrane permeability in Escherichia coli K-12 W3110 assessed as increase in erythromycin antibacterial activity after 20 hrs by liquid microdilution method. Format: functional, organism-based.
Assay [3] has as its system Escherichia coli. The assay is described as follows: Induction of outer membrane permeability in Escherichia coli K-12 W3110 assessed as increase in novobiocin antibacterial activity after 20 hrs by liquid microdilution method. The format is functional, organism-based.

SMILES strings stand for the structures. Converted amounts (≈) assume the structure as drawn. A value given as a limit tells only on which side of the number the result lay.

`CCCCCCCC(=O)N[C@@H](CCN)C(=O)N[C@@H](C(=O)N[C@@H](CCN)C(=O)N[C@H]1CCNC(=O)[C@H]([C@H](C)O)NC(=O)[C@H](CCN)NC(=O)[C@H](CCN)NC(=O)[C@H](CC(C)C)NC(=O)[C@@H](Cc2ccccc2)NC(=O)[C@H](CN)C1=O)[C@H](C)O`: the MIC in the assay with Staphylococcus aureus was greater than 128 µg/mL; against Escherichia coli [1] it was 16 µg/mL (≈ 13.8 µM). In the assay with Escherichia coli [1], `CC[C@H]1OC(=O)[C@H](C)[C@@H](O[C@H]2C[C@@](C)(OC)[C@@H](O)[C@H](C)O2)[C@H](C)[C@@H](O[C@@H]2O[C@H](C)C[C@H](N(C)C)[C@H]2O)[C@](C)(O)C[C@@H](C)C(=O)[C@H](C)[C@@H](O)[C@]1(C)O` [ERYTHROMYCIN] gave an MIC of 64 µg/mL (≈ 87.2 µM). In the assay with Escherichia coli [1], `CC(C)C[C@@H]1NC(=O)[C@@H](Cc2ccccc2)NC(=O)[C@H](CN)N(C(=O)O)CCNC(=O)[C@H]([C@@H](C)O)NC(=O)[C@H](CCCN)NC(=O)[C@H](CN)NC1=O` yielded an MIC greater than 128 µg/mL. As to `CCCCCCCC(=O)N[C@@H](CCN)C(=O)N[C@@](C)(C(=O)N[C@@H](CCN)C(=O)N[C@H]1CCNC(=O)[C@H]([C@@H](C)O)NC(=O)[C@H](CCN)NC(=O)[C@H](CCN)NC(=O)[C@H](CC(C)C)NC(=O)[C@@H](Cc2ccccc2)NC(=O)[C@H](CCN)N1)[C@H](C)O`, the MIC in the assay with Staphylococcus aureus was greater than 128 µg/mL; in the assay on Escherichia coli [1], 0.5 µg/mL (≈ 0.425 µM). As for `CO[C@@H]1[C@@H](OC(N)=O)[C@@H](O)[C@H](Oc2ccc3c(O)c(NC(=O)c4ccc(O)c(CC=C(C)C)c4)c(=O)oc3c2C)OC1(C)C` [NOVOBIOCIN], the MIC against Escherichia coli [1] worked out at 128 µg/mL (≈ 209 µM). The same measure, in the same setting: for `CC(C)C[C@@H]1NC(=O)[C@@H](Cc2ccccc2)NC(=O)[C@H](CCCN)N(C(=O)O)CCNC(=O)[C@H]([C@@H](C)O)NC(=O)[C@H](CCCN)NC(=O)[C@H](CCCN)NC1=O` the value was greater than 128 µg/mL; for `CC(C)C[C@@H]1NC(=O)[C@@H](Cc2ccccc2)NC(=O)[C@H](CN)N(C(=O)O)CCNC(=O)[C@H]([C@@H](C)O)NC(=O)[C@H](CN)NC(=O)[C@H](CN)NC1=O`, greater than 128 µg/mL. Turning to `CC(C)C[C@@H]1NC(=O)[C@@H](Cc2ccccc2)NC(=O)[C@H](CN)N(C(=O)O)CCNC(=O)[C@H]([C@@H](C)O)NC(=O)[C@H](CN)NC(=O)[C@H](CCCN)NC1=O`, in the assay on Escherichia coli [1], the MIC was greater than 128 µg/mL. Turning to `CC(C)C[C@@H]1NC(=O)[C@@H](Cc2ccccc2)NC(=O)[C@H](CCN)N(C(=O)O)CCNC(=O)[C@H]([C@@H](C)O)NC(=O)[C@H](CCN)NC(=O)[C@H](CCN)NC1=O`, the Activity entry in the assay on Escherichia coli [2] and with Escherichia coli [3] was “Dose-dependent effect” in each case. Further, in the assay with Escherichia coli [1], the MIC is greater than 128 µg/mL. For the molecule `CC(C)CCCCCCCC(=O)N[C@@H](C(=O)N[C@@H](CN)C(=O)NCC(=O)N1CCNC(=O)[C@H]([C@@H](C)O)NC(=O)[C@H](CCN)NC(=O)[C@H](CCN)NC(=O)[C@H](CC(C)C)NC(=O)[C@@H](Cc2ccccc2)NC(=O)[C@@H]1CCN)[C@@H](C)O`, the MIC came out at 64 µg/mL (≈ 57.3 µM) against Staphylococcus aureus and 0.5 µg/mL (≈ 0.447 µM) against Escherichia coli [1].
